Data: US11517588B2, “Nanoparticle, preparation process and uses thereof” (National Tsing Hua University, priority 2019, dated 2022)

Columns and labels:
[1] = tested on: HCA-1 cells; test: EMT phenotype under hypoxic conditions, qRT-PCR; assay type: cell-based, murine; conditions: hypoxic conditions (1% oxygen), 24 h, dose-dependent manner
Protocol: The mRNA level was determined by qRT-PCR 24 h after treatment with free DNIC at different doses (control and hypoxia, n=3; 0.5 and 1 μM DNIC, n=5; 5 μM DNIC, n=6 biologically independent samples).

[2] = Cumulative release of NO, DAR-1 fluorescence probe; assay type: physicochemical; conditions: PBS pH 7.4, 37° C.
Protocol: The cumulative release of NO from NanoNO over time was assessed using an NO-specific 4,5-diamino-N,N,N′,N′-tetraethylrhodamine (DAR-1) fluorescence probe.
The release profile of NO from free DNIC or NanoNO was investigated at pH 7.4 at 37° C. Briefly, free DNIC and NanoNO were suspended with PBS buffer. DAR-1 at a final concentration of 20 μM was added to the solution and then incubated at 37° C. on a 200 rpm orbital shaker. At different time points, the solution was harvested, and the fluorescence intensity (excitation at 560 nm, emission at 595 nm) was measured using a microplate reader (Spark 10M, Tecan, Germany).
FIG. 3 is a data diagram of the effect of NanoNO on the cumulative release of nitric oxide. NO release from free-form DNIC and NanoNO under physiological conditions (pH of 7.4). Free-form DNIC and NanoNO were incubated in PBS buffer at pH 7.4, and the release of NO was measured as the fluorescence intensity (excitation at 560 nm and emission at 595 nm) of the NO-specific probe DAR-1. The results are expressed as a fold change compared to time 0 (free DNIC, n=5; NanoNO; n=4 independent samples). *P=0.0159 compared to free DNIC. FL: fluorescence intensity.

[3] = tested on: orthotopic HCA-1 HCC tumors; test: Tissue distribution of DNIC and NO release in tumors; set-up: species or system C3H mice; conditions: mouse, in vivo, iv
Protocol: ID/g, injected dose per gram. *P=0.0159 compared to Free DNIC. […] Next, NBD-labeled DNIC was used to track the intracellular delivery of free DNIC and NanoNO, and the NO-specific fluorescence probe DAR-1 was used to assess the penetration of NO released from free DNIC and NanoNO in HCC. In FIG. 4F, microphotographs of HCC tumors show DNIC uptake (green) and NO release (red) four hours after intravenous administration of NBD-DNIC loaded in NanoNO or free-form NBD-DNIC (7.5 mg/kg) to mice. 4',6-diamidino-2-phenylindole (DAPI, a fluorescent dye capable of binding strongly to DNA), blue. Scale bar, 50 μm. The experiments were repeated twice independently. […] NO release (red) was detected using DAR-1 in tumors four hours after intravenous administration of NanoNO or free-form DNIC (10 mg/kg) in mice. The arrowheads indicate perivascular NO gradients. Scale bar, 20 μm. The release of NO was imaged and quantified with a Zeiss LSM 780 confocal microscope (n=7 section images from four mice). The experiments were repeated twice independently. The procedure of distribution of NO in the tumor area was as follows. […] Four hours after administration, mice were sacrificed. Tumor tissues were embedded in Tissue-Tek (OCT compound) and immediately frozen in liquid nitrogen. Tumor tissue was sectioned (10 μm thick) onto slides. […]

[4] = tested on: SP1; test: SP1 luciferase reporter; assay type: cell-based, murine; conditions: free-form DNIC 0.5 μM, 24 h, HCA-1 cells
Protocol: The procedure of DNIC triggered activation of SP1 in HCA-1 HCC cells was as follows. HCA-1 cells expressing SP1 reporter (Qiagen, Germany) were established by transfection using Lipofectamine® 2000 (Thermo Fisher Scientific, USA). The cells were then treated with free-form DNIC. After 24 h incubated, the cells were lysed and luciferase signal was measured by microplate reader (Spark 10M, Tecan, Germany).
Data are pooled from two independent experiments. […] Analysis was performed using two-tailed Mann-Whitney U test.

[5] = pH 7.4
Protocol: Free DNIC and NanoNO were suspended with PBS buffer or acetic buffer (pH 4.0 or 5.5) and then incubated at 37° C. in a 200 rpm Orbital Shaker. At different time points, the solution was harvested, dissolved in DMSO and analysed by a UV spectrophotometer at 360 nm.
The kinetic profile for the decomposition of DNIC and the concomitant release of NO from NanoNO were evaluated under physiological and acidic pH conditions at 37° C. […] Free-form DNIC and NanoNO were incubated in a PBS buffer or acetic buffer at a pH of 4.0-7.4, and DNIC destruction was measured using a UV spectrophotometer at 360 nm (n=5 independent samples). The results are expressed as percentage of the initial DNIC. **P=0.0094 and ***P=0.0004 compared to NanoNO at a pH of 7.4.
Free-form DNIC and NanoNO were incubated in PBS containing 10% fetal bovine serum at 37° C. DNIC destruction was measured using a UV spectrophotometer at 360 nm. The results are expressed as the percentage of the initial DNIC (n=3 samples). All data are shown as the mean value± the s.e.m.

[6] = mouse, in vivo, iv
Protocol: The pharmacokinetics and biodistribution of NanoNO in orthotopic murine HCC models generated using HCA-1 were evaluated.
The procedure of pharmacokinetic and tissue distribution study was as follows. C3H/HeNCrNarl male mice with orthotopic implants of HCA-1 cells were injected intravenously with free DNIC (10 mg/kg) or NanoNO (7.5 mg/kg). At different time points, 200 μL of blood was collected from the orbital sinus and mixed with 50 μL of 1000 U/mL heparin (Sigma, USA). For evaluation of tissue distribution, four hours after administration, the mice were sacrificed. The tissues were collected and homogenized in lysis buffer (10 mM Tris-HCl, 1% Triton X-100, 0.1% SDS, 0.1% SDC and 140 mM NaCl). The tissue lysates were kept on ice for 30 min and centrifuged at 25,001 rcf at 4° C. for 30 min, and the supernatants were collected. The DNIC signal was measured by electron paramagnetic resonance (EPR plus, Bruker, Germany). HSCH2CH2OH (1 mM) was added to the serum or tissue lysates to transform all the DNICs into the EPR-active form for analysis. The DNIC concentration was calculated according to a standard curve obtained by the amounts of DNIC or NanoNO.
Non-compartmental analysis was employed for the pharmacokinetic parameter analysis. AUC, area under the curve; CL, clearance; h, hour; t1/2, half-life; Vss, steady state volume of distribution.

[7] = tested on: PD-L1; test: PD-L1 mRNA and protein expression in HCC cells in vitro; assay type: cell-based, murine and human; conditions: dose-dependent manner
Protocol: The procedure of Western blot analysis was as follows. Cells or tissue were lysed in RIPA lysis buffer. Cell lysates were separated on a 10% acrylamide gel and transferred to a PVDF membrane. Membranes were blocked for 1 h in 5% skim milk and then incubated overnight with polyclonal antibodies against PD-L1 and R-actin (clone 122M4782, Cell Signaling, Danvers, Mass.).
FIG. 6F is a data diagram showing reprogramming of tumor microenvironment by NanoNO. FIG. 6G is a Western blot staining diagram showing reprogramming of tumor microenvironment by NanoNO. PD-L1 mRNA and protein expression in HCA-1 cells was analysed by qRT-PCR (n=3 biologically independent samples) (FIG. 6F) and Western blot analysis (FIG. 6G) After treatment with free-form DNIC in vitro. The experiments were repeated twice independently.

[8] = tested on: Macrophage; test: Macrophage polarization after treatment of DNIC in vitro (qPCR); assay type: cell-based, human
Text: The murine hepatocellular carcinoma (HCC) cell line HCA-1 and the human HCC cell lines JHH-7, Hep3B and human lung fibroblasts (HLF) were provided by Dr. Dan Duda (Massachusetts General Hospital, Boston). The human HCC cell line Mahlavu was provided by Dr. Han-Chung Wu (Academia Sinica, Taiwan). The human monocyte cell line THP-1 (ATCC® TIB-202™) was purchased from ATCC. HUVECs (BCRC H-UV001) were obtained from the Bioresource Collection and Research Center, Food Industry Research and Development Institute (Hsinchu, Taiwan). Cell lines were authenticated and tested for mycoplasma. HCA-1 and Mahlavu cells were cultured in high-glucose Dulbecco's modified Eagle's medium (DMEM); JHH-7 and HLF cells were cultured in DMEM/F12 medium; Hep3B cells were cultured in Minimum Essential Medium Alpha (MEMα) (Sigma-Aldrich, St. Louis, Mo.); THP-1 cells were maintained in RPMI-1640 (Corning, N.Y.). All media were supplemented with 10% fetal bovine serum (FBS) and 1% antibiotics (penicillin and streptomycin, HyClone, Logan, Utah). The HUVECs were cultured in Medium 199 (Sigma-Aldrich, St. Louis, Mo.) containing 20% FBS, ECGS (30 μg/mL), heparin (25 U/mL) and L-glutamine (2 mM). THP-1 cells were differentiated into macrophages by 72 h incubation with 20 ng/mL phorbol 12-myristate 13-acetate (PMA, Sigma-Aldrich, St. Louis, Mo.).
(§1) The procedure of reverse transcription quantitative real time PCR was as follows. Total RNA was extracted from HUVECs or flow-sorted tumor-associated macrophages using the RNeasy Mini Kit (Qiagen, Calif., USA). cDNAs were synthesized using the High-Capicity cDNA Reverse Transcription Kit (Applied Biosystems, Calif., USA). Primers specific for Arignase-1, CCL17, CCL22, IL10, MRC1, CXCL9, IL-1β, TNF-α, CXCL-11, NOS2, NOS3, Snail, Slug, Zeb1, Zeb2, Trim28, Fibronectin, Vimentin, E-cadherin, PD-L1, S1PR1, ANGPT1, PDGF-B, VEGFA, ANGPT2, EGF, IL-6, PPARγ, TGFβ, GAPDH and β-actin were used (Table 2), and relative gene expression was determined using Real-Time SYBR Green PCR Master Mix (Applied Biosystems, Calif., USA) on a QPCR System. The comparative threshold cycle method was used to calculate fold change in gene expression, which was normalized to β-actin.

[9] = tested on: HUVECs; test: Expression of pro-angiogenic and vessel stabilizing factors, RT-qPCR; assay type: cell-based, human; conditions: DNIC 1 μM, 24 h
Text: as §1
NO acts as a crucial modulator in regulating angiogenesis and maintaining the vasculature function in TME. […]
FIG. 5A is a data diagram of normalized tumor blood vessels in HCC by low-dose NanoNO. Expression of the pro-angiogenic and vessel stabilizing factors in HUVECs 24 h after treatment with DNIC (1 μM) measured by RT-qPCR. The results are expressed as the fold change relative to the untreated control group (n=9 biologically independent samples). […]

[10] = tested on: HCA-1 cells; test: Invasion and wound healing assays; assay type: cell-based, murine; conditions: 72 h after treatment
Protocol: The procedure of transwell invasion assay was as follows. Cell invasion was examined using a QCM ECMatrix 24-well Cell Invasion Assay (EMD Millipore, USA). HCA-1 cells were seeded in the top chamber without serum. DMEM-H containing 10% FBS was added to the lower chamber. Following incubation for 72 h, the cells on the lower surface were fixed with 4% paraformaldehyde (PFA, in PBS). The chambers were rinsed in PBS and stained with 1% crystal violet (in 90% ethanol) for 30 min. For each experimental condition, 10 image fields were photographed by microscopy (IX83, Olympus, Japan) and quantified.
FIGS. 7A and 7B show free-form DNIC modulates the TME in metastatic lesions and suppresses metastatic progression of HCC. 7A-7B, Invasion (7A) and wound healing assays (7B) of HCA-1 cells were performed 72 h after treatment with free DNIC at different doses. The experiments were repeated twice independently.

O=[N][Fe]1([N]=O)[S](CCO)[Fe]([N]=O)([N]=O)[S]1CCO [Free DNIC, Fe(μ-SCH2CH2OH)2(NO)4]
EMT markers and E-cadherin expression [1]: prevented the increase in epithelial-mesenchymal transition (EMT) markers | in vitro release of NO [2]: proceeded at a rapid rate during the first two hours | accumulation of DNIC in HCC tumors [3]: poorly delivered and accumulated in the tumor | SP-1 luciferase activity [4]: significantly decreased | half-life of DNIC (DNIC destruction) [5]: 3.9 ± 1.5 h | CL [6]: 0.0276 L/h/kg | Vss [6]: 0.0327 L/kg | t1/2 [6]: 1.27 h | PD-L1 expression in murine and human HCC cells in vitro [7]: significantly reduced PD-L1 expression | macrophage polarization in vitro [8]: did not directly affect macrophage polarization | Gene expression Arg-1 (M2 type) ([8]; DNIC 0.5 μM): 1.08 ± 0.26 | Gene expression CCL-17 (M2 type) ([8]; DNIC 0.5 μM): 1.06 ± 0.13 | Gene expression CCL-22 (M2 type) ([8]; DNIC 0.5 μM): 0.96 ± 0.11 | Gene expression CXCL-9 (M1 type) ([8]; DNIC 0.5 μM): 1.22 ± 0.17 | Gene expression CXCL-11 (M1 type) ([8]; DNIC 0.5 μM): 2.02 ± 0.79 | Gene expression IL-1b (M1 type) ([8]; DNIC 0.5 μM): 1.13 ± 0.07 | Gene expression IL-6 (M1 type) ([8]; DNIC 0.5 μM): 1.16 ± 0.03 | Gene expression MRC1 (M2 type) ([8]; DNIC 0.5 μM): 1.00 ± 0.17 | Gene expression PPARγ (M2 type) ([8]; DNIC 0.5 μM): 0.92 ± 0.05 | Gene expression TGF-β (M2 type) ([8]; DNIC 0.5 μM): 1.11 ± 0.06 | Gene expression TNF-α (M1 type) ([8]; DNIC 0.5 μM): 0.95 ± 0.08 | Gene expression iNOS (M1 type) ([8]; DNIC 0.5 μM): 1.10 ± 0.35 | Gene expression Arg-1 (M2 type) ([8]; DNIC 1 μM): 1.27 ± 0.28 | Gene expression CCL-17 (M2 type) ([8]; DNIC 1 μM): 1.19 ± 0.27 | Gene expression CCL-22 (M2 type) ([8]; DNIC 1 μM): 1.07 ± 0.22 | Gene expression CXCL-9 (M1 type) ([8]; DNIC 1 μM): 1.22 ± 0.53 | Gene expression CXCL-11 (M1 type) ([8]; DNIC 1 μM): 1.85 ± 0.72 | Gene expression IL-1b (M1 type) ([8]; DNIC 1 μM): 1.21 ± 0.04 | Gene expression IL-6 (M1 type) ([8]; DNIC 1 μM): 1.27 ± 0.08 | Gene expression IL-10 (M2 type) ([8]; DNIC 1 μM): 1.22 ± 0.14 | Gene expression MRC1 (M2 type) ([8]; DNIC 1 μM): 1.19 ± 0.16 | Gene expression PPARγ (M2 type) ([8]; DNIC 1 μM): 0.91 ± 0.13 | Gene expression TGF-β (M2 type) ([8]; DNIC 1 μM): 0.95 ± 0.03 | Gene expression TNF-α (M1 type) ([8]; DNIC 1 μM): 0.94 ± 0.11 | Gene expression iNOS (M1 type) ([8]; DNIC 1 μM): 0.93 ± 0.47 | expression of pro-angiogenic genes (VEGF, ANGPT2, and EGF) [9]: downregulated | expression of vessel maturation-related genes (S1PR1 and ANGPT1) [9]: significantly upregulated | migration and invasion of HCA-1 cells [10]: significantly inhibited the migration and invasion
